Laboratory results: patent US10865188B2, “Dibenzo azepine compounds and their use in the treatment of otic diseases and disorders” (Pipeline Therapeutics, Inc., priority 2015, dated 2020)

Tested on: HES1
Test: Human neural stem cell assay, Hes1 gene expression (real-time PCR)
Format: cell-based
Conditions: human neural stem cells, 7 point CRC, read-out: hNSC HES1 IC50
Experimental: Neural stem cells (NSC) were derived from embryonic stem cells using a published protocol (Yuan et al., Mar. 2, 2011, PLoS ONE, 6(3):e17540). Cells were sorted and characterized at passage 3 and were expanded. Cells were then frozen at passage 5. Cells were maintained in NSC media (DMEM/F12, N2 (1×), B27(1×) (Invitrogen), and Pen/Strep (1×) (Life Technologies) with 20 ng/ml bFGF (BD Bioscience/Corning)). On day 1, cells were plated in 96 well plates that have been previously coated with poly-ornithin and laminin, 60,000 cells/well in 100 μl of media. On day 2, spent media was removed, and 180 μl of fresh media was added to the cells. Later that same day (day 2), cells were treated with 20 μl of NSC media containing test compounds (7 point CRC). On day 3, spent media was removed and 140 μl of RLT/bME was added to the cells. RNA was extracted using the QiaCube (Qiagen®, Germantown, Md., USA) using the total RNA extraction+DNAse protocol. RNA was then reverse-transcribed to cDNA using iScript (Bio-Rad, Hercules, Calif., USA). cDNA was then used for real-time PCR analysis using iTaq Sybergreen (BioRad). Expression of Atoh1, Hes5, Hes1, Myosin7a genes was evaluated using CFX96 or CFX384 (Bio-Rad). HPRT1 was used as a reference gene. Analysis was done using Microsoft® Excel® and CBIS (ChemInnovation Software, Inc., San Diego, Calif., USA). […]

IC50: 242 nM
Compound: C[C@H](OC(=O)NCC(F)(F)C(F)(F)F)C(=O)N[C@@H]1C(=O)Nc2ccccc2-c2ccccc21 [Compound I, (2,2,3,3,3-pentafluoropropyl)-carbamic acid (S)-1-((S)-6-oxo-6,7-dihydro-5H-dibenzo[b,d]azepin-7-ylcarbamoyl) ethyl ester]
